35 compounds from US20210198277A1, “AMINE-SUBSTITUTED ARYL OR HETEROARYL COMPOUNDS” (Epizyme, Inc., priority 2016, published 2021) can be followed below.

The structures appear in SMILES notation. Some results are limits rather than exact numbers.

The first assay addresses T1, EHMT2 (Homo sapiens, UniProt Q96KQ7).
T1 construct: host or cells: MDA-MB-231
T1 sequence (Q96KQ7 1-1210): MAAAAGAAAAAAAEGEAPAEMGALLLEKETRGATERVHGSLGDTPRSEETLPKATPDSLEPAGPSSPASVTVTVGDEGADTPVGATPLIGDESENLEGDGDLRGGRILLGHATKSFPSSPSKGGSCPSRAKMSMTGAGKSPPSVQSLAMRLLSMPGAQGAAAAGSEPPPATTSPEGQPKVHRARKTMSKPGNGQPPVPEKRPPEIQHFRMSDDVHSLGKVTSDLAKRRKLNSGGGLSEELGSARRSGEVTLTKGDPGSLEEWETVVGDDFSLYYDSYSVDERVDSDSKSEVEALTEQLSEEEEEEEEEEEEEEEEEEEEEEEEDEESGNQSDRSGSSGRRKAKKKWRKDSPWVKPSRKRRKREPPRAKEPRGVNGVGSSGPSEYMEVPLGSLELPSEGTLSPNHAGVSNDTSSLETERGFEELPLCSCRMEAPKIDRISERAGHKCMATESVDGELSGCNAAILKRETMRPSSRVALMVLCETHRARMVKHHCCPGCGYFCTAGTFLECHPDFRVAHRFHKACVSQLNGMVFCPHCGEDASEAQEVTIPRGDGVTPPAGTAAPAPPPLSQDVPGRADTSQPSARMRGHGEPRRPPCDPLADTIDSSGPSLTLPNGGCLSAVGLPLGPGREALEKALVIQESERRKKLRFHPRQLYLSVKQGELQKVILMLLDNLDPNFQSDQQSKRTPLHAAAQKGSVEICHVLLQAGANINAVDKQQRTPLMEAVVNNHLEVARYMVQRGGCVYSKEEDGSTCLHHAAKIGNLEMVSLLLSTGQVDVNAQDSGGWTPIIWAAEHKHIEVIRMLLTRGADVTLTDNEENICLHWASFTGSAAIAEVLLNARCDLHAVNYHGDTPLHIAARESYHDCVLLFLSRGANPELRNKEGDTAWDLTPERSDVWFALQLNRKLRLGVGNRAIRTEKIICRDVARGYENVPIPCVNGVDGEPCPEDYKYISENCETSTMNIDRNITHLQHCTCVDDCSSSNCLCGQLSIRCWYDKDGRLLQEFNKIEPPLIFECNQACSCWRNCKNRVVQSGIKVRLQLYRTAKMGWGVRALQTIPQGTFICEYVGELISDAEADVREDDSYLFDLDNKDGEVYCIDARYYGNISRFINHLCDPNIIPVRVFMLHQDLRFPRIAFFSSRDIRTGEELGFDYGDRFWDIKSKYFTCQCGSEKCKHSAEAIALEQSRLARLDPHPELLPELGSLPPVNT
The assay can be described thus: MDA-MB-231 H3K9me2 in-cell Western assay (EHMT2 ICW). The format is cell-based. The note with it: Table II; MDA-MB-231 H3K9me2 in-cell Western; read-out: EHMT2 ICW (IC50 μM). The method, boiled down:
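MDA-MB-231 cells (3,000/well) seeded onto compound, kept 30 min at room temperature, then 48 h at 37 °C, 5% CO2. IC50 from triplicate wells, four-parameter fit.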
As to `COc1ccc(Nc2nccc(NCC3CCN(C(C)=O)CC3)n2)cc1COCCN1CC(F)C1` [Compound 57], the IC50 lay within 1 to 10 µM.
As to `COc1ccc(Nc2nccc(NC3CCN(C(C)=O)CC3)n2)cc1OCCCN1CCCC1` [Compound 54], the half-inhibitory concentration (IC50) was 1 to 10 µM.
With `COc1ccc(Nc2nccc(NCC3CCOCC3)n2)cc1OCCCN1CCCC1` [Compound 3, N^2-(4-methoxy-3-(3-(pyrrolidin-1-yl)propoxy)phenyl)-N^4-((tetrahydro-2H-pyran-4-yl)methyl)pyrimidine-2,4-diamine], the IC50 was 0.1 to 1 µM.
The same measure, in the same setting: as for `COc1ccc(Nc2nccc(N3Cc4cn[nH]c4C3)n2)cc1OCCCN1CCCC1` [Compound 53], the figure is 1 to 10 µM; as for `COc1ccc(Nc2nccc(NCC(=O)N(C)c3ccccc3)n2)cc1OCCCN1CCCC1` [Compound 52], 1 to 10 µM.

The assay is the same for the next values; noted with them: Table III; MDA-MB-231 H3K9me2 in-cell Western; read-out: EHMT2 ICW (IC50 μM).
Consider `COc1ccc(Nc2nccc3[nH]ccc23)cc1OCCCN1CCCC1` [Compound 266, N-(4-methoxy-3-(3-(pyrrolidin-1-yl)propoxy)phenyl)-1H-pyrrolo[3,2-c]pyridin-4-amine], for which the IC50 lay within 1 to 10 µM.
With `COc1ccc(Nc2nccc(NCC3CCOCC3)n2)cc1OC1CC2(C1)CN(C)C2` [Compound 367], the IC50 is > 10 µM.
Take `CNc1cnnc(Nc2ccc(OC)c(OCCCN3CCCC3)c2)c1` [Compound 370]: the concentration for half-maximal inhibition (IC50) was > 10 µM.
For the compound `COc1ccc(Nc2nccc(NCC(F)(F)F)n2)cc1OCCCN1CCCC1` [Compound 392], the IC50 lay within 1 to 10 µM.
Consider `CNc1ccnc(Nc2ccc(OC)c(OCCCN3CCCCC3)c2)n1` [Compound 390], for which the IC50 was 0.1 to 1 µM.
Consider `CNc1ccnc(Nc2ccc3cn(CCN(C)C)nc3c2)n1` [Compound 404, N^2-(2-(2-(dimethylamino)ethyl)-2H-indazol-6-yl)-N^4-methylpyrimidine-2,4-diamine], for which the IC50 is > 10 µM.
For the compound `CNc1ccnc(Nc2ccc(OC)c(OCCCN3CCCC3)c2)c1` [Compound 379], the IC50 was 1 to 10 µM.
For the compound `CNc1ccnc(Nc2ccc(Cl)c(OCCCN3CCCC3)c2)n1` [Compound 398], the IC50 was 1 to 10 µM.
As for `COc1ccc(Nc2cnnc(NCC3CCN(C(C)=O)CC3)c2)cc1OCCCN1CCCC1` [Compound 366], the half-maximal inhibitory concentration (IC50) was > 10 µM.
Regarding `CNc1cc(C)nc(Nc2ccc(OC)c(OCC3CCCN(C)C3)c2)n1` (centres unmarked) [Compound 413, N^2-(4-methoxy-3-((1-methylpiperidin-3-yl)methoxy)phenyl)-N^4,6-dimethylpyrimidine-2,4-diamine], the IC50 lay in the range of 0.1 to 1 µM.
For `CNc1cc(C)nc(Nc2ccc(OC)c(OCC3CCN(C)C3)c2)n1` (single isomer, unassigned) [Compound 417], the IC50 lay within 1 to 10 µM.
In the case of `CNc1ccnc(Nc2ccc3c(c2)N(C(=O)CCN(C)C)CC3)n1` [Compound 363], the IC50 is > 10 µM.
On the same count and under the same terms, with `CNc1nc(Nc2ccc(OC)c(OCCCN3CCCC3)c2)nc(C)c1F` [Compound 360] the figure was 0.1 to 1 µM; with `CNc1ccnc(Nc2ccc3cn(CCCN(C)C)nc3c2)n1` [Compound 405], > 10 µM.
`CCc1cc(NC)nc(Nc2ccc(OC)c(OCCCN3CCCC3)c2)n1` [Compound 364]: the IC50 is 0.1 to 1 µM.
For `CNc1ccnc(Nc2ccc(OC)c(OCCN3CCOCC3)c2)n1` [Compound 361], the 50% inhibitory concentration (IC50) is > 10 µM.
As to `CNc1cc(Nc2cc(OCCCN3CCCC3)c(OC)cn2)ccn1` [Compound 372], the IC50 was in the range of 0.1 to 1 µM.
Still for that read-out and setting: as for `CNc1ccnc(Nc2cccc(N3CCC(N)C3)c2)n1` (centres unmarked) [Compound 400], the figure is > 10 µM; as for `CNc1cc(C)nc(Nc2cccc(OCCCN3CCCC3)c2)n1` [Compound 391], 1 to 10 µM.
Consider `CNc1ccnc(Nc2ccc(OC)c(OCC3CCN(C)C3)c2)n1` (single isomer, unassigned) [Compound 416], for which the IC50 lay in the range of 0.1 to 1 µM.
As for `CNc1nc(Nc2ccc(OC)c(OCCCN3CCCC3)c2)ncc1C(F)(F)F` [Compound 358], the IC50 was > 10 µM.
On to `CCNC(=O)c1cc(Nc2nccc(NC)n2)ccc1OC` [Compound 395], for which the IC50 was > 10 µM.
For the compound `CCCN1CCC(COc2cc(Nc3nccc(NC)n3)ccc2OC)C1` (centres unmarked) [Compound 420, N^2-(4-methoxy-3-((1-propylpyrrolidin-3-yl)methoxy)phenyl)-N^4-methylpyrimidine-2,4-diamine], the IC50 lay in the range of 1 to 10 µM.
Same read-out and setting: as for `CNc1ccnc(Nc2ccc(OC)c(OCC3CCN(C)C3)c2)n1` (centres unmarked) [Compound 393], the figure is 0.1 to 1 µM.
Still for that read-out and setting: with `CNc1ccnc(Nc2ccc(OC)c(OCC3CCN(C(C)C)C3)c2)n1` (centres unmarked) [Compound 409, N^2-(3-((1-isopropylpyrrolidin-3-yl)methoxy)-4-methoxyphenyl)-N^4-methylpyrimidine-2,4-diamine] the figure was 0.1 to 1 µM.
Still for that read-out and setting: with `COc1ccc(Nc2nccc(CNC3CCOCC3)n2)cc1OCCCNc1ccccc1` [Compound 365] the figure was > 10 µM.
`CNc1cc(C)nc(Nc2ccc(OC)c(OCC3CCN(C)C3)c2)n1` (single isomer, unassigned) [Compound 418]: the IC50 is < 0.1 µM.
In the case of `CCNC(=O)c1cc(Nc2nccc(NC)n2)ccc1Cl` [Compound 396], the IC50 was > 10 µM.
Regarding `CNc1ccnc(Nc2ccc3ccn(CCN4CCCC4)c(=O)c3c2)n1` [Compound 381], the IC50 was > 10 µM.
On the same count and under the same terms, as for `CNc1ccnc(Nc2ccc(OC)c(COCCN3CCCC3)c2)n1` [Compound 382], the figure is 0.1 to 1 µM.
